Here are results for three compounds from ChEMBL document CHEMBL1158090, “Cytotoxic cycloartane triterpene saponins from Actaea asiatica” (J Nat Prod, 2006).

Assay type in all cases: functional, cell-based
One test relates to MCF7. Nature of the test: Cytotoxicity against human MCF7 cells.
In another test the test system is HepG2. Nature of the test: (§1) Cytotoxicity against human Hep G2 cells.
Test [1] is described as follows: as §1. The conditions noted are these: HepG2.

Activity calls are given as the source filed them. The rule behind the calls is not given here.

On to `C[C@@H]1C[C@]2(OCC[C@]3(C)O[C@H]23)O[C@H]2C[C@@]3(C)C4=CC[C@H]5C(C)(C)[C@@H](O[C@@H]6OC[C@@H](O)[C@H](O)[C@H]6O)CC[C@@]56C[C@@]46CC[C@]3(C)[C@@H]12`, for which the result in the test on MCF7 and with HepG2 was inactive.
A word on the IC50: it is the concentration at which inhibition is half-maximal. A higher IC50 goes with weaker potency in that assay. On to `CC(=O)O[C@@H]1C[C@@]23C[C@@]24CC[C@H](O[C@@H]2OC[C@@H](O)[C@H](O)[C@H]2O)C(C)(C)[C@@H]4CC[C@H]3[C@]2(C)C[C@@H]3OC(C(=O)C(C)C)=C[C@@H](C)[C@@H]3[C@@]12C` [ASIATICOSIDE A], for which the figures for the IC50 (in the test with MCF7; in test [1]) were 9.78 µM and 9.9 µM, respectively.
In the same order, the values of `CC(=O)O[C@@H]1C[C@@]23C[C@@]24CC[C@H](O[C@@H]2OC[C@@H](O)[C@H](O)[C@H]2O)C(C)(C)[C@@H]4CC=C3[C@]2(C)C[C@@H]3OC(C(=O)C(C)C)=C[C@@H](C)[C@@H]3[C@@]12C` [ASIATICOSIDE B] are 8.32 µM and 9.74 µM.
